Results reported in article PMC8071314, “Computational Design and Development of Benzodioxane-Benzamides as Potent Inhibitors of FtsZ by Exploring the Hydrophobic Subpocket” (Antibiotics, 2021).
Values after ≈ are worked out from the molar mass of the structure shown.

Columns and labels:
MDRSA 11.7 = test: MIC on multidrug resistant clinical S. aureus strain MDRSA 11.7 (EUCAST/CLSI); format: cell-based; settings: Staphylococcus aureus
Procedure: (§1) We tested 1–8 for their antimicrobial activity on different S. aureus strains (Table 2).
(§2) The antibacterial activities on MDRSA 11.7 and MDRSA 12.1 were performed following the European Committee on Antimicrobial Susceptibility Testing (EUCAST) recommendations and Clinical and Laboratory Standards Institute (CLSI) guidelines, as detailed before. Tetracycline was used as a positive control on every assay plate.

[1] = tested on: MSSA ATCC 29213 and MRSA ATCC 43300; test: MIC and MBC on methicillin-sensitive and methicillin-resistant S. aureus; format: cell-based, Staphylococcus aureus; settings: for MIC / MBC: Staphylococcus aureus, MSSA ATCC 29213 and MRSA ATCC 43300; for MIC: lowest dose arresting bacterial growth; for MBC: minimal dose for irreversible block; for fold more potent than inferior (methylenoxy) homolog: MRSA and MSSA, 1 vs VI, 2 vs VII, 3 vs V, 5 vs 4, 8 vs 7
Procedure: (§3) We first determined the minimal inhibitory concentration (MIC), i.e., the lowest compound dose (µM) arresting bacterial growth, and the minimal bactericidal concentration (MBC), i.e., the minimal dose (µM) of the compound required for an irreversible block, even after drug removal. Secondly, the derivatives having the most promising activities vs. MRSA were also tested on human MRC-5 cells, calculating their percentages of cytotoxicity by using the MTT assay. Cells were first incubated with each compound for 24 h, then the derivative was removed, and the cells were overlaid with MTT for an additional 3 h. After that time, DMSO replaced the MTT solution, and after 10 min the absorbance was measured at 570 nm. The percentage of cytotoxicity was defined by the formula [100 − (sample OD/untreated cells OD) × 100]. Table 2 reports TD90, defined as the compound concentration (µM) that reduced viability of MRC-5 cells by 90%. Moreover, we reported the therapeutic index (TI), as TD90 and MBC ratio.
The antibacterial activity was tested on both a methicillin-sensitive and a methicillin-resistant S. aureus strain, dissolving all the compounds in dimethyl sulfoxide (DMSO) and using fresh cell cultures at 10^5 cells/mL, in a final volume of 2 mL. The detailed protocol is identical to what was previously reported. Every assay was performed in quadruplicate, and for each series of experiments, both positive (no compounds) and negative (no bacteria) controls were included.

MRC-5 cells = test: MTT cytotoxicity assay on MRC-5 cells; format: cell-based, human; settings: concentration reducing viability of MRC-5 cells by 90%, 24 h incubation
Procedure: as §3
Compounds showing an antibacterial activity at a concentration lower than 10 μg/mL were serially diluted in DMEM and tested for cytotoxicity on MRC-5 cells by the MTT assay (Sigma, St Louis, MO, USA). Protocol was the same previously reported.

MSSA ATCC29213 = tested on: MSSA ATCC29213; design: method as in PMID 25462242, PMID 27191617, PMID 31750973, PMID 28586174, PMID 32260339; settings: Figure 1; cited from earlier work
MDRSA 12.1 = test: MIC on multidrug resistant clinical S. aureus strain MDRSA 12.1 (EUCAST/CLSI); format: cell-based, Staphylococcus aureus; settings: for MIC: Staphylococcus aureus, MDRSA 12.1
Procedure: as §1, §2

[2] = tested on: B. subtilis strain WM5126; test: Spot viability assay on LB plates; format: cell-based; settings: Bacillus subtilis, spotted on LB plates with 0, 0.03, 0.06, 0.1 or 1 µg/mL compound
Procedure: The promising properties of these new compounds prompted us to test them on B. subtilis, a model Gram-positive species used previously in evaluating other benzamides, such as 8j, the benzothiazole derivative of PC190723 [28]. We chose derivatives 1, 5, and 8, which had the lowest MICs on S. aureus and because they were representative of different substituents on the benzodioxane scaffold. B. subtilis strain WM5126 was grown until early log phase, and then 1 × and 10 × dilutions of the culture were spotted onto LB plates containing 0, 0.03, 0.06, 0.1, or 1 µg/mL final concentration of the compounds.
The two B. subtilis strains used were WM3612 (JH642 amyE::Pxyl-gfp-gp56), described in Bhambani et al., and WM5126 (JH642 amyE::Pxyl-gfp-zapA), which is the same as strain FG347 [29]. For spot viability assays on plates, compounds were diluted from DMSO stocks into molten LB agar as described above and mixed well before solidifying. WM3612 cultures were grown to early exponential phase in LB broth at 37 °C, then spotted directly or after 1:10 dilution into LB onto LB plates containing various concentrations of compounds. After allowing spots to air dry, plates were then incubated overnight at 34 °C and photographed.

[3] = tested on: B. subtilis FtsZ rings (strain WM5126, GFP-ZapA); test: Fluorescence microscopy of GFP-ZapA (Z ring) localization; format: cell-based, Bacillus subtilis; settings: 1 h exposure
Procedure: (yellow arrows in Figure 5 highlight normal sharp bands at the future division sits). On the contrary, in cells treated with compounds 7 and 8, we observed GFP-ZapA forming many (0.4 µg/mL 7) or nearly all (0.8 µg/mL 7 or 0.4 µg/mL 8) foci or focal clusters (white arrows in Figure 5), and abnormal cell elongation is clearly evident. The perturbation of Z rings and cell elongation is similar to the previously described effects of 8j.
For fluorescence microscopy, overnight cultures of WM5126 were grown at […] (after 1:200 dilution of overnight and addition of 0.1% xylose to induce expression of GFP-ZapA) for ~2 h until reaching an OD600 of ~0.2, then treated with no drug or with compounds 7 or 8 diluted in water from stock solutions of 40 mg/mL (8) or 27 mg/mL (7) in DMSO. Those dilutions (40 µg/mL in water) were then added at 1:100 or 1:50 to the cultures and grown for 1 h shaking at 33 °C prior to spotting on a thin layer of 1% agarose in phosphate buffered saline. Cells were imaged with differential interference contrast (DIC) and fluorescence using an Olympus BX100 fitted with a 100 × Plan Apochromat objective (N.A. 1.4) and a GFP filter set (Chroma). Images were acquired with CellSens software (Olympus) and DIC, and fluorescent images of the same field were overlaid using ImageJ [31].
Figure 5 Effect of compounds 7 and 8 on B. subtilis Z rings. B. subtilis strain WM5126 was induced with 0.1% xylose to express GFP-ZapA, then exposed to compounds 7 or 8 for 1 h during exponential growth at 37 °C prior to imaging by DIC and fluorescence. Yellow arrows indicate normal sharp rings at the future division site, while white arrows indicate abnormal foci or clusters. Scale bar, 5 µm.

Row | SMILES | MIC (MDRSA 11.7) | MIC [1] | MIC (MDRSA 12.1) | MBC [1] | TD90 (MRC-5 cells) | MIC (MSSA ATCC29213) | MIC [2] | fold more potent than inferior (methylenoxy) homolog [1] | times more active than inferior homolog (MDRSA 12.1; MDRSA, 3 vs V) | GFP-ZapA forming foci or focal clusters ([3]; 0.4 µg/mL) | melting point | GFP-ZapA forming foci or focal clusters ([3]; 0.8 µg/mL)
1 | Cc1nc(-c2ccc3c(c2)OC(CCOc2ccc(F)c(C(N)=O)c2F)CO3)no1 (stereo not drawn) [Compound 1, 3-[2-(7-(5-methyl-1,2,4-oxadiazol-3-yl)-1,4-benzodioxan-2-yl)ethyloxy]-2,6-difluorobenzamide] | 1.2 µM (≈ 0.501 µg/mL) | 1.2 µM (≈ 0.501 µg/mL) | 1.2 µM (≈ 0.501 µg/mL) | 1.2 µM (≈ 0.501 µg/mL) | >1910 µM | – | 0.1 to 1 µg/mL (≈ 0.24 to 2.4 µM) | 5 fold | – | – | – | –
2 | NC(=O)c1c(F)ccc(OCc2nc3cc(Cl)cnc3s2)c1F [PC190723] | – | – | – | – | – | 2.8 µM (≈ 0.996 µg/mL) | – | – | – | – | – | –
3 | COC(=O)c1ccc2c(c1)OC(COc1ccc(F)c(C(N)=O)c1F)CO2 (stereo not drawn) [IV] | – | – | – | – | – | 1.6 µM (≈ 0.607 µg/mL) | – | – | – | – | – | –
4 | CSc1nc(-c2ccc3c(c2)OC(CCOc2ccc(F)c(C(N)=O)c2F)CO3)no1 (stereo not drawn) [Compound 3, 3-[2-(7-(5-methylthio-1,2,4-oxadiazol-3-yl)-1,4-benzodioxan-2-yl)ethyloxy]-2,6-difluorobenzamide] | 1.1 µM (≈ 0.494 µg/mL) | 0.5 µM (≈ 0.225 µg/mL) | 1.1 µM (≈ 0.494 µg/mL) | 0.5 µM (≈ 0.225 µg/mL) | 1668 µM | – | – | three | two | – | – | –
5 | CCc1nc(-c2ccc3c(c2)OC(CCOc2ccc(F)c(C(N)=O)c2F)CO3)no1 (stereo not drawn) [Compound 2] | 0.6 µM (≈ 0.259 µg/mL) | 0.6 µM (≈ 0.259 µg/mL) | 0.6 µM (≈ 0.259 µg/mL) | 0.6 µM (≈ 0.259 µg/mL) | 1854 µM | – | – | 10 fold | – | – | – | –
6 | NC(=O)c1c(F)ccc(OCC2COc3cc4ccccc4cc3O2)c1F (stereo not drawn) [Compound 4, 3-[(2,3-dihydronaphtho[2,3-b][1,4]dioxin-2-yl)methoxy]-2,6-difluorobenzamide] | 11.4 µM (≈ 4.23 µg/mL) | 7.1 µM (≈ 2.64 µg/mL) | 11.4 µM (≈ 4.23 µg/mL) | 7.1 µM (≈ 2.64 µg/mL) | >2276 µM | – | – | – | – | – | – | –
7 | NC(=O)c1c(F)ccc(OCCC2COc3cc4ccccc4cc3O2)c1F (stereo not drawn) [Compound 5, 3-[2-(2,3-dihydronaphtho[2,3-b][1,4]dioxin-2-yl)ethoxy]-2,6-difluorobenzamide] | 1.3 µM (≈ 0.501 µg/mL) | 0.6 µM (≈ 0.231 µg/mL) | 0.6 µM (≈ 0.231 µg/mL) | 0.6 µM (≈ 0.231 µg/mL) | 233 µM | – | < 0.1 µg/mL | 12 fold | – | – | – | –
8 | NC(=O)c1c(F)ccc(OCc2nc3cc(Cl)ccc3s2)c1F [Compound 8j] | – | – | – | – | – | 0.70 µM (≈ 0.248 µg/mL) | – | – | – | – | – | –
9 | NC(=O)c1c(F)ccc(OCCC2COc3cc4c(cc3O2)CCCC4)c1F (stereo not drawn) [Compound 8, 3-[2-(2,3,6,7,8,9-hexahydronaphtho[2,3-b][1,4]dioxin-2-yl)ethoxy]-2,6-difluorobenzamide] | 0.3 µM (≈ 0.117 µg/mL) | 0.25 µM (≈ 0.0973 µg/mL) | 0.3 µM (≈ 0.117 µg/mL) | 0.25 µM (≈ 0.0973 µg/mL) | 2054 µM | – | < 0.1 µg/mL | 50 fold | – | nearly all | 166.5 °C | –
10 | NC(=O)c1c(F)ccc(OCC2COc3cc4c(cc3O2)CCCC4)c1F (stereo not drawn) [Compound 7] | 10.7 µM (≈ 4.02 µg/mL) | 13.3 µM (≈ 4.99 µg/mL) | 5.3 µM (≈ 1.99 µg/mL) | 13.3 µM (≈ 4.99 µg/mL) | 200 µM | – | – | – | – | many | – | nearly all
11 | NC(=O)c1c(F)ccc(OCCCC2COc3ccccc3O2)c1F (stereo not drawn) [III] | – | – | – | – | – | 28.6 µM (≈ 9.99 µg/mL) | – | – | – | – | – | –

Further lines, with some results ahead:

Row | MIC (MDRSA 11.7) | MIC [1] | MIC (MDRSA 12.1) | SMILES | MBC [1] | TD90 (MRC-5 cells) | MIC (MSSA ATCC29213) | MIC [2] | fold more potent than inferior (methylenoxy) homolog [1] | times more active than inferior homolog (MDRSA 12.1; MDRSA, 3 vs V) | GFP-ZapA forming foci or focal clusters ([3]; 0.4 µg/mL) | melting point | GFP-ZapA forming foci or focal clusters ([3]; 0.8 µg/mL)
12 | 11.9 µM (≈ 3.99 µg/mL) | 14.9 µM (≈ 5 µg/mL) | 11.9 µM (≈ 3.99 µg/mL) | NC(=O)c1c(F)ccc(OCCC2COc3ccccc3O2)c1F (stereo not drawn) [II, reference compound] | 14.9 µM (≈ 5 µg/mL) | 226 µM | 14.9 µM (≈ 5 µg/mL) | – | – | – | – | – | –
13 | < 2.3 µM | 1.4 µM (≈ 0.61 µg/mL) | < 2.3 µM | CSc1nc(-c2ccc3c(c2)OC(COc2ccc(F)c(C(N)=O)c2F)CO3)no1 (stereo not drawn) [V, reference compound] | 1.4 µM (≈ 0.61 µg/mL) | 1700 µM | 1.4 µM (≈ 0.61 µg/mL) | – | – | – | – | – | –
14 | 9.9 µM (≈ 3.99 µg/mL) | 6.2 µM (≈ 2.5 µg/mL) | 5 µM (≈ 2.02 µg/mL) | Cc1nc(-c2ccc3c(c2)OC(COc2ccc(F)c(C(N)=O)c2F)CO3)no1 (stereo not drawn) [VI, reference compound] | 6.2 µM (≈ 2.5 µg/mL) | >1983 µM | 6.2 µM (≈ 2.5 µg/mL) | – | – | – | – | – | –
15 | 49.8 µM (≈ 16 µg/mL) | 15.6 µM (≈ 5.01 µg/mL) | 24.9 µM (≈ 8 µg/mL) | NC(=O)c1c(F)ccc(OCC2COc3ccccc3O2)c1F (stereo not drawn) [I, reference compound] | 249 µM (≈ 80 µg/mL) | 49.8 µM | 15.6 µM (≈ 5.01 µg/mL) | – | – | – | – | – | –
16 | 9.6 µM (≈ 4.01 µg/mL) | 6 µM (≈ 2.5 µg/mL) | 4.8 µM (≈ 2 µg/mL) | CCc1nc(-c2ccc3c(c2)OC(COc2ccc(F)c(C(N)=O)c2F)CO3)no1 (stereo not drawn) [VII, reference compound] | 6 µM (≈ 2.5 µg/mL) | >1916 µM | 6.0 µM (≈ 2.5 µg/mL) | – | – | – | – | – | –
17 | 11.2 µM (≈ 4 µg/mL) | 14 µM (≈ 5 µg/mL) | 11.2 µM (≈ 4 µg/mL) | NC(=O)c1c(F)ccc(OCCCOc2ccc3ccccc3c2)c1F [Compound 6] | 14 µM (≈ 5 µg/mL) | >2238 µM | – | – | – | – | – | – | –
